Positions of bridges follow the written chain, without caps; N, C: chain ends. Non-standard residues stand in square brackets, D forms with d. No end group written: not given here. hArg = N=C(N)NCCCC[C@H](N)C(=O)O; Cit = NC(=O)NCCC[C@H](N)C(=O)O
What was measured:
[1] = molecular target: T1, murine E^d MHC class II allele (Mus musculus, UniProt P01904+P01915); experiment: antigenic peptide prepulse assay, E^d allele (fixed APC prepulsed with HEL106-116); type: cell-based; parameters: The A20 and CH27 B cell lymphoma lines express H-2^d and H-2^k alleles, respectively; endogenous in cells; host or cells: A20 B cell lymphoma (mitomycin C-treated or paraformaldehyde-fixed); conditions: AE peptide 64 μM, prepulse 24 μM antigenic peptide; for Activity in antigenic peptide prepulse assay, E^d (baseline = 1.00): Table 25
T1 sequence (P01904 26-255): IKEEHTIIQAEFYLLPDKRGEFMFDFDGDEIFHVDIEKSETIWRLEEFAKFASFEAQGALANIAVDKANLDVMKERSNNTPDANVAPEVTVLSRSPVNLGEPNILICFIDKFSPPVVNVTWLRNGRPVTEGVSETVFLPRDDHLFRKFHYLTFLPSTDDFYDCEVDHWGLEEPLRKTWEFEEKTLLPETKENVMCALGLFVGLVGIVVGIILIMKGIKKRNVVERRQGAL
T1 sequence (P01915 27-264 limits assumed): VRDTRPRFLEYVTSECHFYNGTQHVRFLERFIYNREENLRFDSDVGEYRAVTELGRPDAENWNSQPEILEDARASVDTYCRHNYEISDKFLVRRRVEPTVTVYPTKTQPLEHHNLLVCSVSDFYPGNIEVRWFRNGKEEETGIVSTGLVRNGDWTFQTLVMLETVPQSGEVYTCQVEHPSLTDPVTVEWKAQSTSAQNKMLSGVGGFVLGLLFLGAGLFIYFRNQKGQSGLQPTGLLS

[2] = molecular target: T1, murine E^d MHC class II allele; experiment: AE101 series peptide prepulse assay, E^d allele; type: cell-based; conditions: for T cell response relative to baseline with PBS-pretreated APC (NONE = 1.0), E^d: Table 35, AE101 series peptide prepulse 64 μM, antigenic peptide 0.3 μM, supernatant dilution 1:4
Description: (§1) Table 35: Activities of multiple substitution analogs of AE235, targeting the E^k and E^d allele, in an AE101 series peptide prepulse assay. In this assay the concentration of AE101 series peptides used during the prepulse was 64 μM. The concentrations of antigenic peptides were 0.3 μM for Ed and 0.4 μM for E^k. The supernatant dilutions taken into the HT-2 cell assay was 1:4 for E and 1:2 for E^k. The AE381 peptide is a head-to-tail cyclization: the amino terminal amino group is coupled through an amide linkage to the carboxyl terminal group. The AE 382 peptide is a side-to-tail cyclization: the epsilon amino group of Lys^4 is coupled through an amide linkage to the carboxyl terminal group.
(§2) AE101 series peptide prepulse assays were carried out in the E^d and E^k systems as described for simultaneous competition assays with the following modifications. Fixed APC were first incubated for 6 h at 1×10^6DMEM-5% FCS with 64 μM of each AE101 series peptide or with PBS. The APC were then washed four times with ten volumes of DMEM-5% FCS, and were cocultured with T hybridoma cells and the indicated submaximal doses of antigenic peptides used in the simultaneous competition assays. The baseline T cell response was measured by culturing T hybridoma cells with antigenic peptide and PBS-pretreated APC.

[3] = test system: murine E^k MHC class II allele; experiment: AE101 series peptide prepulse assay, E^k allele; type: cell-based; conditions: Table 35; AE101 series peptide prepulse 64 μM; antigenic peptide 0.4 μM; supernatant dilution 1:2
Description: as §1, §2

HLA-DR1 molecules = experiment: release of biotin-labeled hMBP(90-102) from HLA-DR1 in the presence of unlabeled hMBP (assay II); type: binding, human; conditions: Table 37, unlabeled hMBP(90-102) 250 μM

## Ac-A[Cit]NKNPK-NH2 [AE351]
[1]; supernatant 1:4
  Activity in antigenic peptide prepulse assay, E^d (baseline = 1.00): 0.42

## Ac-FK HArg MYP Cit-NH2 [AE371]
[1]; Table 26, supernatant 1:2
  Activity in antigenic peptide prepulse assay, E^d (baseline = 1.0): 0.90

## Ac-LK HArg KYPK-NH2 [AE363]
[1]; Table 26, supernatant 1:2
  Activity in antigenic peptide prepulse assay, E^d (baseline = 1.0): 0.60

## Ac-LKMKYPK-NH2 [AE362]
[1]; Table 26, supernatant 1:2
  Activity in antigenic peptide prepulse assay, E^d (baseline = 1.0): 0.76

## Ac-LR HArg KYP Cit-NH2 [AE366]
[2]
  T cell response relative to baseline with PBS-pretreated APC (NONE = 1.0), E^d: 7.5
[3]
  T cell response relative to baseline with PBS-pretreated APC (NONE = 1.0), E^k: 3.5
[1]; Table 26, supernatant 1:2
  Activity in antigenic peptide prepulse assay, E^d (baseline = 1.0): 0.44

## Ac-LR HArg MYPK-NH2 [AE365]
[1]; Table 26, supernatant 1:2
  Activity in antigenic peptide prepulse assay, E^d (baseline = 1.0): 0.70

## Ac-LR Orn K HArg PK-NH2 [AE340]
[1]; supernatant 1:4
  Activity in antigenic peptide prepulse assay, E^d (baseline = 1.00): 0.10

## Ac-LRLKYPN-NH2 [AE368]
[1]; Table 26, supernatant 1:2
  Activity in antigenic peptide prepulse assay, E^d (baseline = 1.0): 0.55

## Ac-LRMKLPK (lactam 4-C) [AE382]
[2]
  T cell response relative to baseline with PBS-pretreated APC (NONE = 1.0), E^d: 1.7
[3]
  T cell response relative to baseline with PBS-pretreated APC (NONE = 1.0), E^k: 3.2
[1]; Table 28, supernatant 1:4
  Activity in antigenic peptide prepulse assay, E^d (baseline = 1.0): 0.52

## Ac-LRMKNPF-NH2 [AE350]
[1]; supernatant 1:4
  Activity in antigenic peptide prepulse assay, E^d (baseline = 1.00): 0.82

## Ac-LRMKYPN-NH2 [AE370]
[1]; Table 26, supernatant 1:2
  Activity in antigenic peptide prepulse assay, E^d (baseline = 1.0): 0.74

## Ac-LRMKYP[Cit]-NH2 [AE364]
[1]; Table 26, supernatant 1:2
  Activity in antigenic peptide prepulse assay, E^d (baseline = 1.0): 0.34

## Ac-LRMMYP[Cit]-NH2 [AE367]
[1]; Table 26, supernatant 1:2
  Activity in antigenic peptide prepulse assay, E^d (baseline = 1.0): 1.10

## Ac-L[hArg]LKYPK-NH2 [AE361]
[1]; Table 26, supernatant 1:2
  Activity in antigenic peptide prepulse assay, E^d (baseline = 1.0): 0.83

## Ac-L[hArg]MKYPK-NH2 [AE360]
[1]; Table 26, supernatant 1:2
  Activity in antigenic peptide prepulse assay, E^d (baseline = 1.0): 0.91

## cyclic LRMKLPK (bridge (positions not given here); also: cyclic, ring type not given here) [AE381, “head-to-tail” cyclization from the amino-terminus to the carboxyl-terminus of AE114]
[2]
  T cell response relative to baseline with PBS-pretreated APC (NONE = 1.0), E^d: 1.0
[2]; text on Table 35, AE peptide prepulse 64 μM, E^d and E^k systems
  activity in the AE101 series peptide prepulse assay, in words: potent suppressive activity
[3]
  T cell response relative to baseline with PBS-pretreated APC (NONE = 1.0), E^k: 0.3
HLA-DR1 molecules; AE101 series compound 1 μM
  Relative Release, With unlabeled hMBP(90-102), 1 μM: 0.09
HLA-DR1 molecules; AE101 series compound 64 μM
  Relative Release, With unlabeled hMBP(90-102), 64 μM: −0.19
[1]; Table 28, supernatant 1:4
  Activity in antigenic peptide prepulse assay, E^d (baseline = 1.0): 0.19
